Reference: patent US12016858B2, “Methods for the treatment of abnormal involuntary movement disorders” (AUSPEX PHARMACEUTICALS, INC., priority 2015, dated 2024)

System: motor and phonic tics of TS
Test: Open-label pilot study of safety and efficacy in TS patients
Type: in vivo, human
Set-up: key to VTSS, Mean / TTS, Mean / GSS, Mean / MTSS, Median / TTS, Median / GSS, Median / MTSS change, Mean / VTSS change, Mean / TTS change, Mean / MTSS change, Median / VTSS change, Median / TTS change, Median: Yale Global Tic Severity Scale (YGTSS) scores
Text: An open-label, pilot study was undertaken 1) to evaluate the safety and tolerability of treatment with deutetrabenazine, and 2) to evaluate the efficacy of deutetrabenazine to suppress the motor and phonic tics of TS. Study Design. Inclusion criteria (at screening, unless otherwise indicated) included: 12 to 18 years of age, inclusive; […] Throughout the study, an independent rater assessed tic severity with the Yale Global Tic Severity Scale (YGTSS) and tic impact with the TS-Clinical Global Impression (TS-CGI) scale. The independent rater will not have knowledge of the subject's clinical care, including medications or reports of adverse events (AEs). Dose regimen. Study drug was available in five dose strengths: 6, 9, 12, 15, and 18 mg, all of which were identical in size, shape, and color (white). […] Subjects then maintained that dose level for the duration of the treatment period. Subjects who were receiving CBIT (Comprehensive Behavioral Intervention for Tics) therapy were permitted to participate as long as therapy had been stable/ongoing for at least 4 weeks before Screening and was expected to be stable for the duration of the trial. Study drug was dosed as follows. All treatment doses were administered with meals. A daily dose of 6 mg was given once a day in the morning, and daily doses of 12 mg and higher were administered twice daily in divided doses, approximately 10 hours apart during the day. The starting dose was deutetrabenazine 6 mg in the AM. The dose of study drug was optionally adjusted weekly in increments of 6 mg/day during the titration period to identify a dose level that suppressed tics and was well tolerated. Dose reductions were in increments of 6 mg/day. In this study, the maximum total daily dose of deutetrabenazine at the Week 5 visit or later was 36 mg (18 mg twice daily [BID]). Titration period (6 weeks). […] Safety evaluations during titration included assessment of vital signs, monitoring for adverse events, and rating scales for depression and suicidal ideation and behavior. In-person study visits were scheduled at Weeks 2 and 4 after initiating therapy and telephone contacts were scheduled for Weeks 1, 3, 5, and 6 after initiating therapy in order to assess tic suppression and adverse events. The YGTSS and TS-CGI were assessed by an independent rater. The Investigator, in consultation with the subject and parent/guardian, determined when an adequate level of tic suppression had been achieved. The dose of deutetrabenazine was increased on a weekly basis until there was adequate suppression of tics, the subject experienced a protocol-defined “clinically significant” AE (defined as an AE that is related to study medication and either (1) moderate or severe in intensity or (2) meets the criteria for a serious adverse event [SAE]), or the maximal allowable dose was reached. Although dose adjustments could made up to and including the Week 5 phone call, if a stable dose was reached before then, the subject continued on that dose for the remainder of the titration period and throughout maintenance dosing. Once adequate suppression of tics had been achieved, the dose of study drug was not increased further. If a subject experienced a “clinically significant” AE that was attributed to study drug, the Investigator used his or her judgment to determine if a dose reduction or suspension was necessary. Dose adjustments were to be made based on all available information, including the subject and parent/guardian reports of AEs and tic suppression, the clinical assessment of safety and efficacy by the Investigator, as well as information from rating scales. At the end of the titration period, the subject's dose was established for the maintenance period. Maintenance period (2 weeks). Subjects continued to receive their maintenance dose over the next 2 weeks, although dose reductions for AEs were allowed. […]

Structure (SMILES): [2H]C([2H])([2H])Oc1cc2c(cc1OC([2H])([2H])[2H])C1CC(=O)C(CC(C)C)CN1CC2 (stereo not drawn) [deutetrabenazine, (RR, SS)-1,3,4,6,7,11b-hexahydro-9,10-di(methoxy-d3)-3-(2-methylpropyl)-2H-benzo[a]quinolizin-2-one]
- TS-CGI mean score (Week 8, from a baseline of 4.7, 7 point scale, lower is better): 3.7
- GSS, Mean (Wk 2): 59.4
- GSS, Median (Wk 2): 57
- MTSS, Mean (Wk 2): 15.9
- MTSS, Median (Wk 2): 16
- TTS, Mean (Wk 2): 29.4
- TTS, Median (Wk 2): 28
- VTSS, Mean (Wk 2): 13.5
- VTSS, Median (Wk 2): 14
- GSS, Mean (Wk 4): 51.1
- GSS, Median (Wk 4): 51
- MTSS, Mean (Wk 4): 14.2
- MTSS, Median (Wk 4): 14
- TTS, Mean (Wk 4): 26.3
- TTS, Median (Wk 4): 27
- VTSS, Mean (Wk 4): 12.1
- VTSS, Median (Wk 4): 12
- GSS, Mean (Wk 8): 45.1
- GSS, Median (Wk 8): 47
- Impairment, Mean (Wk 8): 22.9
- Impairment, Median (Wk 8): 20
- MTSS, Mean (Wk 8): 12.0
- MTSS, Median (Wk 8): 11
- TTS, Mean (Wk 8): 21.2
- TTS, Median (Wk 8): 23
- VTSS, Mean (Wk 8): 9.2
- VTSS, Median (Wk 8): 9
- GSS, Mean (Wk 9 (washout)): 51.7
- GSS, Median (Wk 9 (washout)): 51
- MTSS, Mean (Wk 9 (washout)): 13.9
- MTSS, Median (Wk 9 (washout)): 14.5
- TTS, Mean (Wk 9 (washout)): 25.6
- TTS, Median (Wk 9 (washout)): 26
- VTSS, Mean (Wk 9 (washout)): 11.7
- VTSS, Median (Wk 9 (washout)): 10.5
- PGIC mean improvement (after 8 weeks of treatment, 7-point scale, preliminary): 1.8 points
- patients much or very much improved (PGIC) (after 8 weeks of treatment, preliminary): about 75%
- motor and vocal tics (FIG. 9) (baseline through week 8): lowered (improved) both motor and vocal tics
- GSS change, Mean (Δ B-Wk 2): −7.7
- GSS change, Median (Δ B-Wk 2): 0
- MTSS change, Mean (Δ B-Wk 2): −1.9
- MTSS change, Median (Δ B-Wk 2): 0
- TTS change, Mean (Δ B-Wk 2): −2.9
- TTS change, Median (Δ B-Wk 2): 0
- VTSS change, Mean (Δ B-Wk 2): −1.0
- VTSS change, Median (Δ B-Wk 2): 0
- GSS change, Mean (Δ B-Wk 9): −14.7
- GSS change, Median (Δ B-Wk 9): −10.5
- MTSS change, Mean (Δ B-Wk 9): −3.4
- MTSS change, Median (Δ B-Wk 9): −3
- TTS change, Mean (Δ B-Wk 9): −6.3
- TTS change, Median (Δ B-Wk 9): −5
- VTSS change, Mean (Δ B-Wk 9): −2.9
- VTSS change, Median (Δ B-Wk 9): −2.5
